Data taken from patent US10703761B2, “Bile acid receptor modulators and methods of use thereof” (City of Hope, priority 2016, dated 2020).
Entries after “also recorded” stand apart in the source; their conditions may differ.

Columns and labels:
FXR [1] = biological target: T1, FXR (Homo sapiens, UniProt Q96RI1); experiment: GeneBLAzer cell-based FXR transactivation assay (FXR-UAS-bla HEK 293T cells)
T1 construct: the Gal4 DBD was fused to the LBD of FXR in this assay
T1 sequence (Q96RI1 262-486 limits assumed): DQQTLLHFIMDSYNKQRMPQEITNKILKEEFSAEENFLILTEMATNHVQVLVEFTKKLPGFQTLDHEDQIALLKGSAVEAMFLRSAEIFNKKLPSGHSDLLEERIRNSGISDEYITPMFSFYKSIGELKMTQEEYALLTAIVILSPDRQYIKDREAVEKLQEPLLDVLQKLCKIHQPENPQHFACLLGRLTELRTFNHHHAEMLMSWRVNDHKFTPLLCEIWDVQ
Procedure: To investigate the cellular activities of the novel berberine derivatives, we used a GeneBLAzer FXR cell-based assay, which detects the levels of a β-lactamase reporter controlled by a promoter containing the binding site of the DNA binding domain (DBD) of the GAL4 transcription factor; the Gal4 DBD was fused to the LBD of FXR in this assay. In typical test for agonists, DMSO (vehicle and negative control), 10 μM GW4064 (positive control), and titrations of GW4064, LCA or the 24 newly synthesized novel berberien derivatives analogs were mixed with GeneBLAzer FXR-UAS-bla HEK 293T cells. Reporter assays were performed after a 16 h incubation. […] For the experiments to evaluate the antagonistic activity, titrations of compounds were tested in the presence of 400 nM GW4064. […]
FXR transactivation assay was performed using GeneBLAzer FXR-UAS-bla HEK 293T cells (Invitrogen) as previously described with minor modifications. […] Plates were then incubated in the dark for 90 min at room temperature before measuring the fluorescent emissions at 460 nm and 535 nm (using excitation at 400 nm) with an Envision plate reader with bottom read capacity. […] The % Activation was calculated using Eq. 2.
[formula] […] The % Inhibition was calculated using Eq. 3. […]

FXR [2] = biological target: T2, FXR (Homo sapiens, UniProt Q96RI1); experiment: FXR luciferase reporter assay, transient transfection with a synthetic FXR responsive reporter plasmid in HEK293 cells; format: cell-based
T2 construct: expressed in transfected cells; host or cells: HEK293 (transient)
T2 sequence (Q96RI1 1-486): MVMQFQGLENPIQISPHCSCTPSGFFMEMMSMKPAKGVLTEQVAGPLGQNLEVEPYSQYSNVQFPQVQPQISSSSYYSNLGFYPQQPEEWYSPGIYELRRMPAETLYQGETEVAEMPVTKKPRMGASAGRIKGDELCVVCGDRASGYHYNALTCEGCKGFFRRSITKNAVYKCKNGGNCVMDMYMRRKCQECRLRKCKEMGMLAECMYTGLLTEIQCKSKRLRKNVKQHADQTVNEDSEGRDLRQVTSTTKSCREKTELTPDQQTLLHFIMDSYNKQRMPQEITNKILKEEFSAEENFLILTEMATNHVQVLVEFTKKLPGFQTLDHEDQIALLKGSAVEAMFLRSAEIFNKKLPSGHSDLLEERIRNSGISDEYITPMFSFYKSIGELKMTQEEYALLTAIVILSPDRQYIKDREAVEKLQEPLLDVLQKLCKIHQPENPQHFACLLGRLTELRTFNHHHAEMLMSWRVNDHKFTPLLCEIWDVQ
T2 sequence (P19793 1-462 partner): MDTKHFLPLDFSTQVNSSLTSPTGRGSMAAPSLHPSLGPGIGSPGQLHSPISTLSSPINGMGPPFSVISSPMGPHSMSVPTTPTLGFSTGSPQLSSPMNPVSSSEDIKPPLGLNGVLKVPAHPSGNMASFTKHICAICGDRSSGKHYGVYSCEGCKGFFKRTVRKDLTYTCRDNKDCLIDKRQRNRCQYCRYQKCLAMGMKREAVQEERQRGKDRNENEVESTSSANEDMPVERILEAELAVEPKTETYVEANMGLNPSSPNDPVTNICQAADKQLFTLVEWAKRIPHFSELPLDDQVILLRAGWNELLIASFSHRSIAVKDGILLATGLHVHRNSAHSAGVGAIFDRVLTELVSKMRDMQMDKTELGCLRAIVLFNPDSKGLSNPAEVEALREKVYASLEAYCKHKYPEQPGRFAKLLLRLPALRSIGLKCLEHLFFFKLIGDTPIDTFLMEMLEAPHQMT
Procedure: Effect of berberine derivatives and γ-aminobutyric acid derivative on FXR inhibition was initially assessed using transient transfections with a synthetic FXR responsive reporter plasmid. HEK 293 Cells were treated with vehicle alone or 100 μM CDCA with or without compounds, as indicated. Results are luciferase expression normalized using the β-gal internal control.
TGR5-reporting activity was evaluated by luciferase assay. Treatments were performed in quadruplicate and normalized with β-galactosidase. HEK293 cells were transfected with FXR and RXRα, and FXRE-containing luciferase construct. Cells were treated with 10 μM of indicated compounds; luciferase was measured and normalized with β-galactosidase.
To evaluate TGR5 activity of compounds, cells were transfected 100 ng pCRE-luc reporter along with pCMV-galactosidase (10 ng) as an internal control for normalization of transfection efficiency. Plasmids were complexed with […] of Fugene 6 reagent (Promega, Madison, Wis.) in OptiMEM (Invitrogen, Carlsbad, Calif.) and cells were transfected for 18 h. The following day, cells were treated with vehicle and appropriate ligand as indicated. Luciferase and β-galactosidase activities were assayed 6 h later using Luciferase Assay System (Promega) and Galacto-Star (Applied Biosystems, Foster City, Calif.) reagents, respectively, and a MLX luminometer (Dynex Technologies, Chantilly, Va.). To evaluate the FXR activity of compounds, HEK293 cells were transfected with 25 ng of farnesoid X receptor expression plasmid (pCMX-hFXR), 25 ng of retinoid X receptor expression plasmid (pCMXhRXR), 100 ng of reporter plasmid (pEcREx6-TK-Luc), and 10 ng of pCMV-b-galactosidase as an internal control in each well, using Fugene 6 reagent. Approximately 18 h after transfection, cells were incubated for 12 h with different concentrations of each.

| melting point [°C] | FXR antagonist activity in cell-based FXR transactivation assay (FXR [1]) | FXR activity of compound alone (agonism) (FXR [2]; compound alone, compared with GW4064) | Compound | Inhibition of FXR activation by CDCA (FXR antagonism) (FXR [2]; CDCA 100 μM, compounds 10 μM) |
| --- | --- | --- | --- | --- |
| 198.4 | identified as FXR antagonists |  | COc1ccc2cc3[n+](cc2c1NCCc1ccc(O)c(O)c1)CCc1cc2c(cc1-3)OCO2 [DY322, Berberine-Dopamine Hybrid] |  |
| 228.7 | identified as FXR antagonists |  | COc1ccc2cc3[n+](cc2c1NCc1cccc(B(O)O)c1)CCc1cc2c(cc1-3)OCO2 [DY323, Berberine-Phenylboronic Hybrid] |  |
|  |  | no effect on FXR activity | O=C(O)CCCN1C(=O)c2ccccc2C1=O [DY419] | strongly inhibited FXR activation; also recorded: activated FXR receptor to exert FXR antagonistic biological function |
